Results as given in patent US20040224958A1, “Pyridopyrimidinone derivatives for treatment of neurodegenerative disease” (priority 2000, published 2004).
Where two headings read alike, the source gives them in different places.

Columns and labels:
[1] = target: cdk4/D (Homo sapiens, UniProt P11802); assay: Cyclin-Dependent Kinase 4 (cdk4) Assay; type: biochemical; details: read-out: cdk4/D IC50
Method: A typical assay, for instance, measures inhibitory activity against the cyclin D dependent kinase 4 enzyme (cdk4/D). […] The cdk4 assay was carried out as follows.
Cyclin-Dependent Kinase 4 (cdk4) Assay
All components except the ATP were added to the wells, and the plate was placed on a plate mixer for 2 minutes. The reaction was started by adding [^32P]ATP and the plate was incubated at 25° C. for 15 minutes. The reaction was terminated by addition of 0.1 mL of 20% trichloroacetic acid (TCA). The plate was kept at 4° C. for at least 1 hour to allow the substrate to precipitate. The wells were then washed five times with 0.2 mL of 10% TCA and ^32P incorporation was determined with a beta plate counter (Wallac Inc., Gaithersburg, Md.).

[2] = target: Cdk5/p25 (Homo sapiens, UniProt Q00535); assay: Cyclin-Dependent Kinase 5 High Throughput Screening (cdk5-HTS) Assay; type: biochemical; details: high throughput screen
Method: Cyclin-Dependent Kinase 5 High Throughput Screening (cdk5-HTS) Assay
Enzyme assays for IC50 determinations were performed in 96-Pierce Reacti-Bind™ White Opaque Glutatione Coated Plates (Cat. No. 15240B).
The total volume was 0.100 mL containing a final concentration of 50 mM TRIS (tris[hydroxymethyl]aminomethane) at pH 7.4, 50 mM NaCl, 10 mM MgCl2, 5 mM dithiothreitol, 20 μM ATP containing 16 μCi/mL of Redivue[y33P]ATP (Amersham Pharmacia Biotech Cat. No. AH9968), 1.0 μg/mL Cdk5/p25, 20 μg/mL GST-RbCOOH, and appropriate dilutions of a compound of the present invention. The reaction was started by adding[^33P]ATP, and the plate was shaken for 30 seconds, then incubated at room temperature for 30 minutes. The reaction was terminated by addition of 0.05 mL of 120 mM EDTA. The plate was kept at room temperature for 45 minutes to allow substrate to bind to the walls of the plate. The wells were then washed three times with 0.2 mL of 1×PBS. Once thoroughly dry, 0.140 mL of MicroScint™2O (Packard Bioscience Cat. No. 87-9081) cocktail was added to all wells. The incorporation of ^33P was determined with a beta plate counter (Packard Topcount).

[3] = target: cdk2/cyclinE (Homo sapiens, UniProt P24941); assay: Cyclin-Dependent Kinase Assay cdk2/cyclinE
[4] = target: cdk2/cyclinA (Homo sapiens, UniProt P24941); assay: Cyclin-Dependent Kinase Assay cdk2/cyclinA
[5] = target: cdc2/cyclinB (Homo sapiens, UniProt P06493); assay: Cyclin-Dependent Kinase Assay cdc2/cyclinB
Chain of cdc2/cyclinB (P06493 whole entry): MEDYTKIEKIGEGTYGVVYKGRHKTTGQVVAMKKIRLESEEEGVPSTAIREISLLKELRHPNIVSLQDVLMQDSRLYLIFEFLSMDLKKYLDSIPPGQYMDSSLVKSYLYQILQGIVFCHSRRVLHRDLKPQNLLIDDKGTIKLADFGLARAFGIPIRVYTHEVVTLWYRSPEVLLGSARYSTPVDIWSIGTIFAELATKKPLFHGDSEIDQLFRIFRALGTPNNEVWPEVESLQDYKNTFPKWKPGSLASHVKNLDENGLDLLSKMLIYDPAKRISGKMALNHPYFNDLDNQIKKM
Chain of cdc2/cyclinB (P14635 whole entry, further chain): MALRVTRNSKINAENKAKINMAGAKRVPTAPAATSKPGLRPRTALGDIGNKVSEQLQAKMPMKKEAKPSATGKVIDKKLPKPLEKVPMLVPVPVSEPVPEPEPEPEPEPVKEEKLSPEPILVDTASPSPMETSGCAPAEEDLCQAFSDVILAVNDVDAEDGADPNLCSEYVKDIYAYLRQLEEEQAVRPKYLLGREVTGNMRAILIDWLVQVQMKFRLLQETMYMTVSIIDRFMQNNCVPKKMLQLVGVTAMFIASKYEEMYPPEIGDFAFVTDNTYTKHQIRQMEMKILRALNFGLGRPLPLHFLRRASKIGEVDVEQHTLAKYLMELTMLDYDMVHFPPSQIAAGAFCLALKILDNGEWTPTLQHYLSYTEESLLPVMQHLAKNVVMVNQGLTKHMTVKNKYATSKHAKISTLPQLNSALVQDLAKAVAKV

Chain of cdk4/D (P11802 whole entry): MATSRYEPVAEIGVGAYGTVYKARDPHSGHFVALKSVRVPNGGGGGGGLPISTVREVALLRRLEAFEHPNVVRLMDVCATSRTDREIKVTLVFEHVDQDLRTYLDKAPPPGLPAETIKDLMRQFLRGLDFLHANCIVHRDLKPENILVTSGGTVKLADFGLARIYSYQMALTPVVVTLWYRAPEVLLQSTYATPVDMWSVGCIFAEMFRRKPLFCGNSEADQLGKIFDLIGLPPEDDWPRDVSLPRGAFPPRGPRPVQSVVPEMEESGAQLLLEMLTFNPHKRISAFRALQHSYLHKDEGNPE
Chain of cdk4/D (P24385 whole entry, further chain): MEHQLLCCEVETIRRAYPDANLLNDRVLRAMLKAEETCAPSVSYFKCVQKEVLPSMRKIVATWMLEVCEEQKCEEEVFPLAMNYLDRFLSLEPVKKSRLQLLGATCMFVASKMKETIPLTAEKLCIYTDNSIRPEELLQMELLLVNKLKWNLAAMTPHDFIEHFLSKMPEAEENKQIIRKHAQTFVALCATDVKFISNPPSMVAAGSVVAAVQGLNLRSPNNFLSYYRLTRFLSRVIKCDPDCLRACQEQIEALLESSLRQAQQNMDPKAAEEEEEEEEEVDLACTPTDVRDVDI

Compound	IC50 [1] [nM]	IC50 [2] [nM]	IC50 ([3]; read-out: cdk2/E IC50) [nM]	IC50 ([4]; read-out: cdk2/A IC50) [nM]	IC50 ([5]; read-out: cdk1/B IC50) [nM]	IC50 ([3]; cdk2/E IC50) [nM]	IC50 ([4]; cdk2/A IC50) [nM]	IC50 [5] [nM]
2-(3-Chloro-4-iodo-phenylamino)-8-propyl-8H-pyrido[2,3-d]pyrimidin-7-one [Example 573]	190	100	180	820	260			
2-(3-Hydroxy-4-methoxy-phenylamino)-8-propyl-8H-pyrido[2,3-d]pyrimidin-7-one [Example 296]	540	120	240	960	440			
2-(4-Bromo-3-trifluoromethyl-phenylamino)-8-cyclopentyl-8H-pyrido[2,3-d]pyrimidin-7-one [Example 561]	480	440	150	220	350			
2-(4-Chloro-3-methyl-phenylamino)-8-isopropyl-8H-pyrido[2,3-d]pyrimidin-7-one [Example 416]	180	38	220	350	280			
8-(1-Ethyl-propyl)-2-(3-trifluoromethyl-phenylamino)-8H-pyrido[2,3-d]pyrimidin-7-one [Example 485]	232	647	131	600	241			
8-Cyclopentyl-2-(2,4,6-trifluoro-phenylamino)-8H-pyrido[2,3-d]pyrimidin-7-one [Example 473]	510	67	470	330	400			
8-Cyclopentyl-2-(3-fluoro-4-methoxy-phenylamino)-8H-pyrido[2,3-d]pyrimidin-7-one [Example 542]	9.5	7.7	35	75	85			
8-Cyclopropylmethyl-2-(1H-indazol-6-ylamino)-8H-pyrido[2,3-d]pyrimidin-7-one [Example 583]	1300	105	200	260	355			
Cn1c(=O)ccc2cnc(Nc3ccccc3)nc21 [Example 285, 8-Methyl-2-phenylamino-81H-pyrido[2,3-d]pyrimidin-7-one]	2750	255				2270	2800	865
CCn1c(=O)ccc2cnc(Nc3cc(F)cc(F)c3)nc21 [Example 303, 2-(3,5-Difluoro-phenylamino)-8-ethyl-8H-pyrido[2,3-d]pyrimidin-7-one]		470				840	1200	930
CCn1c(=O)ccc2cnc(Nc3cccc(C(F)(F)F)c3)nc21 [Example 305, 8-Ethyl-2-(3-trifluoromethyl-phenylamino)-8H-pyrido[2,3-d]pyrimidin-7-one]		240				670	1100	550
CCCn1c(=O)ccc2cnc(Nc3ccc(Cl)c(C(F)(F)F)c3)nc21 [Example 312, 2-(4-Chloro-3-trifluoromethyl-phenylamino)-8-propyl-8H-pyrido[2,3-d]pyrimidin-7-one]		112	330	2670	268			
CCCn1c(=O)ccc2cnc(Nc3ccc(F)c(F)c3)nc21 [Example 343, 2-(3,4-Difluoro-phenylamino)-8-propyl-8H-pyrido[2,3-d]pyrimidin-7-one]		110				120	290	280
CCCn1c(=O)ccc2cnc(Nc3cc(F)cc(F)c3)nc21 [Example 349, 2-(3,5-Difluoro-phenylamino)-8-propyl-8H-pyrido[2,3-d]pyrimidin-7-one]		200				530	1100	880
CCCn1c(=O)ccc2cnc(Nc3cccc(NC(C)=O)c3)nc21 [Example 353, N-[3-(7-Oxo-8-propyl-7,8-dihydro-pyrido[2,3-d]pyrimidin-2-ylamino)-phenyl]-acetamide]		230				320	460	710
CCCn1c(=O)ccc2cnc(Nc3ccc(O)c(CN4CCOCC4)c3)nc21 [Example 355, 2-(4-Hydroxy-3-morpholin-4-ylmethyl-phenylamino)-8-propyl-8H-pyrido[2,3-d]pyrimidin-7-one]		300				680	1100	500
CCCCn1c(=O)ccc2cnc(Nc3c(F)cc(F)cc3F)nc21 [Example 366, 8-Butyl-2-(2,4,6-trifluoro-phenylamino)-8H-pyrido[2,3-d]pyrimidin-7-one]		699				255	882	1320
CCCCn1c(=O)ccc2cnc(Nc3cc(OC)c(OC)c(OC)c3)nc21 [Example 389, 8-Butyl-2-(3,4,5-trimethoxy-phenylamino)-8H-pyrido[2,3-d]pyrimidin-7-one]		200				320	870	450
CC(C)n1c(=O)ccc2cnc(Nc3ccc(C#N)c(C#N)c3)nc21 [Example 423, 4-(8-Isopropyl-7-oxo-7,8-dihydro-pyrido[2,3-d]pyrimidin-2-ylamino)-phthalonitrile]		160				1100	2600	1800
CCC(C)n1c(=O)ccc2cnc(Nc3ccc(OC)c(F)c3)nc21 (stereo not shown) [Example 462, 8-sec-Butyl-2-(3-fluoro-4-methoxy-phenylamino)-8H-pyrido[2,3-d]pyrimidin-7-one]		10				60	78	88
CCC(C)n1c(=O)ccc2cnc(Nc3cccc(C(F)(F)F)c3)nc21 (stereo not shown) [Example 477, 8-sec-Butyl-2-(3-trifluoromethyl-phenylamino)-8H-pyrido[2,3-d]pyrimidin-7-one]		38				260	370	170
CCC(CC)n1c(=O)ccc2cnc(Nc3cc(OC)c(OC)c(OC)c3)nc21 [Example 501, 8-(1-Ethyl-propyl)-2-(3,4,5-trimethoxy-phenylamino)-8H-pyrido[2,3-d]pyrimidin-7-one]		81				240	760	280
O=c1ccc2cnc(Nc3ccc(Br)c(C(F)(F)F)c3)nc2n1CC1CC1 [Example 589, 2-(4-Bromo-3-trifluoromethyl-phenylamino)-8-cyclopropylmethyl-8H-pyrido[2,3-d]pyrimidin-7-one]		570				190	710	1300
O=c1ccc2cnc(Nc3ccc(C(F)(F)F)cc3)nc2n1CC1CC1 [Example 590, 8-Cyclopropylmethyl-2-(4-trifluoromethyl-phenylamino)-8H-pyrido[2,3-d]pyrimidin-7-one]	460	160					320	650
O=c1ccc2cnc(Nc3cc(Cl)c(O)c(Cl)c3)nc2n1CC(F)(F)F [Example 598, 2-(3,5-Dichloro-4-hydroxy-phenylamino)-8-(2,2,2-trifluoro-ethyl)-8H-pyrido[2,3-d]pyrimidin-7-one]		525				523	970	455
